Each structure is given as a SMILES string.

One assay deals with moDCs. Description: Flow cytometry of surface CD1d and MHC class I on human monocyte-derived DCs. In kind it is cell-based. The following applies: moDCs after 5 days in presence of inhibitor. The text has this:
FIG. 20F is a series of flow cytometric analysis showing surface staining of human monocyte-derived DCs were stained with 42.1 (CD1d), anti-HLA-A,B,C (MHC class I), or isotype control antibodies (dashed lines) after 4 days of differentiation in the presence of BMS212122 (gray lines) or vehicle control (black lines).
Bone marrow was extracted from the femurs of C57BL6 or MTPmx1cre mice, washed once in PBS and resuspended in R10 supplemented with culture supernatant from murine GM-CSF transfected cells for a final concentration of 200 U/mL GM-CSF. BMDCs were then cultured in bacteriological plates for 12-14 days as described. Differentiated cells were harvested by gentle pipetting, washed in PBS, and analyzed by flow cytometry for surface expression of CD11c and I-A^b. […] After 5 days cells were dislodged by gentle pipetting, analyzed by flow cytometry and assayed for antigen presentation.
Mouse cells were stained using the following antibodies: FITC-conjugated α-CD1d (1B1, PharMingen); PE-conjugated α-CD11c (HL3, PharMingen); FITC-conjugated α-1-A^d (AMS-32.1, PharMingen); PE-conjugated α-CD69 (H1.2F3, PharMingen); PE-conjugated α-B220 (RA3-6B2, PharMingen). […] Staining was performed in the presence of Via-Probe (PharMingen) and analyzed with a FACSort flow cytometer (Becton Dickinson). […]

For a further assay, the system named is MODE-K cells. Description: MODE-K cell presentation of α-galcer to DN32 cells (IL-2 ELISA). The conditions noted are these: MODE-K cells incubated with inhibitor (10 uM). In kind it is cell-based, mouse. Here is the method: FIG. 17A is a bar chart showing IL-2 production of MODE-K cells cultured in the presence of BMS212122 (MTPi) or vehicle were incubated with α-galcer for 3 hours, washed, and co cultured with DN32 cells. IL-2 concentrations were measured by ELISA of 24 hour culture supernatants.
(§1) APCs were incubated with 100 ng/mL α-galcer (kindly provided by Dr. H. Ploegh) for 3 hours, washed three times in PBS and aliquoted into a 96 well plate at 10^6 cells/mL. DN32 cells were added at 1:1 E:T ratio unless otherwise indicated. CD4^+ cells were isolated from spleens of OT-II transgenic mice using positive selection on CD4 magnetic beads (Miltenyi Biotec) and incubated with APCs and 100 μg/mL ovalbumin. The 24.8 NKT cell line was incubated with APCs in the absence of added antigen at E:T=2:1 unless otherwise indicated. Mouse IL-2 production was assessed by ELISA (OptEIA, BD PharMingen) of 24 or 40 hour culture supernatants. APCs were treated with BMS212122 (10 uM dissolved in DMSO; kindly provided by Bristol Myers Squibb, New Jersey) as indicated and washed prior to addition of T or NKT cells. […]
The relationship between MTP and CD1d in large intestinal epithelial cells (IECs) was determined. […]

For a further assay, the target named is MTP (Homo sapiens, UniProt P55157). The conditions noted are these: cited from earlier work.
Sequence of MTP (P55157 19-894, species assumed): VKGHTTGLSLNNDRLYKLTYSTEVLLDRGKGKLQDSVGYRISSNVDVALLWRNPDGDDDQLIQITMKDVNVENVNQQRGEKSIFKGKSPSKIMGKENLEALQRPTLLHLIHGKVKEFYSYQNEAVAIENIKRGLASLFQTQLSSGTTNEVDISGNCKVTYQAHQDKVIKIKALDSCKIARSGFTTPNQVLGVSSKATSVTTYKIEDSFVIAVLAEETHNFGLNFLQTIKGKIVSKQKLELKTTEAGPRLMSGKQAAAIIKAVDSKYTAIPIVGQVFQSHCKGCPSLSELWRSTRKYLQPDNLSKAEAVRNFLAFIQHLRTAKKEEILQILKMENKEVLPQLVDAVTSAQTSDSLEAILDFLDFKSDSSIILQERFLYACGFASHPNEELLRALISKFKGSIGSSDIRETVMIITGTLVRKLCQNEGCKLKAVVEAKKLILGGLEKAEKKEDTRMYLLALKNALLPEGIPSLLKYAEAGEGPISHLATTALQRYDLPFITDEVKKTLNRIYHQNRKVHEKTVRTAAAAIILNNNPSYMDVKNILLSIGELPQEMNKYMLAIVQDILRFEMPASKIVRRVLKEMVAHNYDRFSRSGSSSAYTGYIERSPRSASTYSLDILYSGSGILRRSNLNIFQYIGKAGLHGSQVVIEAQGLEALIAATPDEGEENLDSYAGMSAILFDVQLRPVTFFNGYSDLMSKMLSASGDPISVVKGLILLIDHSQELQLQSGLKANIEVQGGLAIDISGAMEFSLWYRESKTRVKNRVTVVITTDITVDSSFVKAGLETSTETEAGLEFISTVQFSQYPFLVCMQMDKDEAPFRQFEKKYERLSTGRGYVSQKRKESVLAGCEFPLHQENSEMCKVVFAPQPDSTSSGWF
Sequence of MTP (P07237 18-508 partner, species assumed): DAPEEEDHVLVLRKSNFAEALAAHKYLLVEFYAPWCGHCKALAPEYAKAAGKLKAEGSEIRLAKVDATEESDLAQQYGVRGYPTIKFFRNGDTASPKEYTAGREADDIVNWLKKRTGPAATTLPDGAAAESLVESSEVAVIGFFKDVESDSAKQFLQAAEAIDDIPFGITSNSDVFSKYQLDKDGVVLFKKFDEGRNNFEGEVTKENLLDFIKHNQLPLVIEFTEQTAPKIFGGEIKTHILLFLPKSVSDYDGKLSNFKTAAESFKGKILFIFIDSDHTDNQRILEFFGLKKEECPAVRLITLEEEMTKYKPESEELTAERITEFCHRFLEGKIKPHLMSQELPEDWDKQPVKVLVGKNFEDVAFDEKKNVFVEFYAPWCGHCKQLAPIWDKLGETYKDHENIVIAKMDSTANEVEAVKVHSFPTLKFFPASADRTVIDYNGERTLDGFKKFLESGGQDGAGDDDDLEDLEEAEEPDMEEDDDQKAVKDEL
The next assay has as its system C1Rd cells. Description: C1Rd cell presentation of α-galcer to DN32 NKT cells (IL-2 ELISA). In kind it is cell-based, human. The following applies: C1Rd cells cultured 5 days with inhibitor. As to the method:
FIG. 20D is a bar chart showing IL-2 production in C1Rd cells cultured with BMS212122 or vehicle for 5 days that were incubated with α-galcer for 3 hours IL-2 concentrations were measured by ELISA of 24 hour culture supernatants. *, p<0.02.
as §1
C1Rd is a human B cell line transfected with human CD1d. […] Incubation of C1Rd cells with BMS212122, but not the vehicle, inhibited the presentation of α-galcer as determined by a reduction in IL-2 secretion (FIG. 20D).

Consider `Cc1ccc2c(nc(C)n2CCCCC2(C(=O)NCC(F)(F)F)c3ccccc3-c3ccccc32)c1NC(=O)c1ccccc1-c1ccc(C(F)(F)F)cc1` [BMS212122, 9-[4-[2,5-Dimethyl-4-[[[4′-(trifluoromethyl)[1,1′-biphenyl]-2-yl]carbonyl]amino]-1H-benzimidazol-1-yl]butyl]-N-(2,2,2-trifluoroethyl)-9H-fluorene-9-carboxamide], for which the “surface CD1d mean fluorescence intensity” value in the assay with moDCs (vehicle 4.2, p<0.05) was 3.3. Also, the “MHC class I mean fluorescence intensity” value in the assay on moDCs (vehicle 70) worked out at 76. Besides, the “presentation of α-galcer to DN32 cells” value in the assay with MODE-K cells is given as “decreased”. In addition, the “transfer of triglycerides, phospholipids, and cholesterol esters in vitro” value at MTP was “blocks transfer”. The “presentation of α-galcer (IL-2 secretion)” value with C1Rd cells is listed as “inhibited”.

The record behind these values is US20050234073A1, “Methods of inhibiting inflammation” (priority 2003, published 2005).
